Measured values published in the supplement of paper PMC10307832.

Columns and labels:
Experiment in all cases: relative viability (nuclei count vs DMSO), 5 days (fraction); higher = more cells survive
[1] = compound: C1COCCN1C2=CC(=O)C3=C(O2)C(=CC=C3)C4=CC=CC5=C4SC6=CC=CC=C56
Method in brief: (§1)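 Nuclei counted with MetaXpress define viability as the ratio of treated to vehicle wells, given as a median across plates. The lung cancer cell lines were in 1536-well plates, pinned with five √10-spaced library-drug doses and imaged at 4× after 5 days and Hoechst staining. Plates passed with control CV below 25% and at least one doubling.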

[2] = compound: CCN(CC)CCCCNc1ncc2cc(-c3cc(OC)cc(OC)c3)c(NC(=O)NC(C)(C)C)nc2n1
Method in brief: as §1

[3] = compound: COCC1(CO)C(=O)C2CCN1CC2 [PRIMA-1MET]
Method in brief: as §1

[4] = compound: COc1nc(C)cnc1NS(=O)(=O)c1cccnc1-c1ccc(-c2nnco2)cc1 [Zibotentan]
Method in brief: as §1

[5] = compound: O=c1cc(-c2cccc3c2Sc2ccccc2S3)oc(N2CCOCC2)c1
Method in brief: as §1

| Cell Line | relative viability ([1]; 0.01 µM) | relative viability ([1]; 0.03162 µM) | relative viability ([1]; 0.1 µM) | relative viability ([1]; 0.3162 µM) | relative viability ([1]; 1 µM) | relative viability ([2]; 0.01 µM) | relative viability ([2]; 0.03162 µM) | relative viability ([2]; 0.1 µM) | relative viability ([2]; 0.3162 µM) | relative viability ([2]; 1 µM) | relative viability ([3]; 0.2 µM) | relative viability ([3]; 0.6325 µM) | relative viability ([3]; 2 µM) | relative viability ([3]; 6.325 µM) | relative viability ([3]; 20 µM) | relative viability ([4]; 0.08 µM) | relative viability ([4]; 0.253 µM) | relative viability ([4]; 0.8 µM) | relative viability ([4]; 2.53 µM) | relative viability ([5]; 0.08 µM) | relative viability ([5]; 0.253 µM) | relative viability ([5]; 0.8 µM) | relative viability ([5]; 2.53 µM) | relative viability ([5]; 8 µM) |
| --- | --- | --- | --- | --- | --- | --- | --- | --- | --- | --- | --- | --- | --- | --- | --- | --- | --- | --- | --- | --- | --- | --- | --- | --- |
| NCI-H838 | 1.04 | 0.966 | 0.98 | 0.99 | 0.893 | 0.99 | 0.971 | 1.01 | 0.97 | 0.643 | 1.05 | 0.946 | 0.841 | 1.08 | 0.659 | 0.962 | 0.87 | 0.987 | 0.998 | 0.979 | 1.09 | 0.862 | 0.947 | 0.887 |
| NCI-H1299 | 1.01 | 0.987 | 1.02 | 0.994 | 1.01 | 1.03 | 1.06 | 1.09 | 1.06 | 1.02 | 1.08 | 1.03 | 1.03 | 1.02 | 0.977 | 1.02 | 1.02 | 0.998 | 1.02 | 1.02 | 1.02 | 1.04 | 1.02 | 1.01 |
| NCI-H1355 | 0.991 | 1.04 | 0.74 | 1.03 | 0.928 | 1.08 | 0.938 | 1.04 | 1.11 | 0.939 | 0.955 | 0.908 | 0.894 | 0.973 | 0.927 | 1 | 0.984 | 0.955 | 1 | 0.955 | 1.13 | 0.837 | 0.904 | 0.953 |
| NCI-H1395 | 0.944 | 0.987 | 0.888 | 1.15 | 0.822 | 0.731 | 0.894 | 0.979 | 0.869 | 0.652 | 0.925 | 0.676 | 0.866 | 0.964 | 0.551 | 1.02 | 0.819 | 0.901 | 1.16 | 0.816 | 0.863 | 1.02 | 0.81 | 1.23 |
| NCI-H1437 | 0.955 | 0.98 | 1.02 | 1.05 | 0.959 | 1.08 | 0.979 | 1.08 | 1.11 | 0.945 | 1.03 | 0.859 | 0.971 | 1 | 0.96 | 1.02 | 0.882 | 0.964 | 0.995 | 1.01 | 1.16 | 1.11 | 0.918 | 1.18 |
| NCI-H1563 | 0.972 | 1.01 | 0.944 | 0.975 | 0.977 | 1.03 | 0.95 | 1.04 | 0.928 | 0.729 | 1.05 | 0.968 | 0.806 | 1.06 | 0.457 | 1.04 | 0.716 | 1 | 1.09 | 0.973 | 0.988 | 0.933 | 0.989 | 0.986 |
| NCI-H1623 | 0.939 | 0.932 | 0.888 | 0.931 | 0.888 | 0.951 | 0.888 | 0.913 | 0.993 | 0.933 | 1.07 | 0.943 | 0.926 | 0.997 | 0.598 | 0.936 | 0.744 | 1.05 | 0.85 | 1.03 | 0.981 | 0.957 | 0.944 | 1.07 |
| NCI-H1648 | 0.861 | 1.03 | 1.14 | 0.932 | 0.959 | 1.02 | 1.16 | 0.927 | 0.656 | 0.544 | 0.852 | 0.715 | 1.07 | 0.722 | 0.75 | 1.04 | 0.786 | 0.84 | 0.932 | 0.742 | 1.16 | 0.792 | 0.591 | 0.921 |
| NCI-H1650 | 0.788 | 0.893 | 0.998 | 0.957 | 0.788 | 0.981 | 0.983 | 1.08 | 0.981 | 0.706 | 1.1 | 0.858 | 0.793 | 0.912 | 0.489 | 0.937 |  | 0.994 | 0.968 | 0.851 | 1.07 | 0.844 | 0.888 | 0.868 |
| NCI-H1651 | 0.983 | 0.976 | 0.975 | 0.998 | 0.944 | 1.04 | 0.988 | 1.05 | 1.06 | 0.979 | 1.08 | 0.901 | 0.907 | 1.04 | 0.946 | 1.03 | 0.912 | 0.937 | 1.03 | 0.974 | 1.13 | 0.983 | 0.941 | 1.07 |
| NCI-H1666 | 0.996 | 0.959 | 1.01 | 1.02 | 0.953 | 0.942 | 0.993 | 1 | 1.17 | 0.973 | 0.993 | 0.868 | 0.962 | 0.938 | 0.942 | 1.02 | 0.879 | 1.03 | 1.06 | 0.94 | 1.09 | 1.02 | 0.911 | 1 |
| NCI-H1703 | 1.19 | 0.926 | 0.964 | 0.958 | 0.861 | 0.832 | 0.854 | 1.19 | 1.04 | 0.723 | 1.19 | 0.852 | 0.815 | 0.797 | 0.0528 | 0.972 | 0.94 | 1.25 | 0.505 | 0.718 | 1.01 | 1.03 | 0.925 | 0.843 |
| NCI-H1734 | 0.977 | 1.01 | 0.883 | 0.997 | 0.964 | 0.949 | 1.1 | 1.09 | 1.03 | 0.85 | 1.03 | 0.75 | 0.734 | 0.945 | 0.0584 | 1.04 | 0.884 | 1.02 | 1 | 0.98 | 1.13 | 1.1 |  | 1.13 |
| NCI-H1755 | 1.03 | 1.01 | 0.986 | 0.994 | 0.985 | 1.04 | 1.05 | 1.08 | 1.1 | 1.01 | 1.04 | 0.928 | 0.85 | 1.07 | 0.999 | 0.972 | 0.987 | 0.926 | 0.977 | 0.96 | 1.03 | 1.05 | 1.06 | 1.05 |
